Reference: the Kinase Knowledgebase extract (Sharma et al. 2016)

Molecular target: MAPK14 (human) (UniProt Q16539)
Experiment: Enzyme Assay

MAPK14 (human), sequence (Q16539 whole entry, looked up): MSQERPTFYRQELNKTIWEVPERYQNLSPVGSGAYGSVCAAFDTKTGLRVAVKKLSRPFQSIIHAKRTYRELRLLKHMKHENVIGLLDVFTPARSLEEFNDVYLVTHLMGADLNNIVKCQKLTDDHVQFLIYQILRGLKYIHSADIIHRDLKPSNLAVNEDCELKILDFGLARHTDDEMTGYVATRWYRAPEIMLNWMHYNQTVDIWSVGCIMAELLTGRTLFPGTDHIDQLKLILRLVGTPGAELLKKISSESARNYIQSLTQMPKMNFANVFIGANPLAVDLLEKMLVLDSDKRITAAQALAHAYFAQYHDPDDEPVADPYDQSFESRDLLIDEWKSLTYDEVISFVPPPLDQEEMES

Row | IC50 [nM] | Compound
1 | < 10 | C[C@H]1CCCCN1c1nnc2ccc(O[C@@H]3CC[C@H](NC(=O)Nc4cc(C(C)(C)C)nn4-c4cccc(OCCN5CCOCC5)c4)c4ccccc43)cn12
2 | < 10 | Cc1ccc(-n2nc(C(C)(C)C)cc2NC(=O)N[C@H]2CC[C@@H](Oc3ccc4nnc(N5CCC[C@H](CO)C5)n4c3)c3ccccc32)cc1
3 | < 10 | Cc1ccc(-n2nc(C(C)(C)C)cc2NC(=O)N[C@H]2CC[C@@H](Oc3ccc4nnc(N5CCCCC5)n4c3)c3ccccc32)cc1
4 | < 10 | Cc1ccc(-n2nc(C(C)(C)C)cc2NC(=O)N[C@H]2CC[C@@H](Oc3ccc4nnc([C@H]5CCCN(C)C5)n4c3)c3ccccc32)cc1
5 | < 10 | CC(C)(C)c1cc(NC(=O)N[C@H]2CC[C@@H](Oc3ccc4nnc(N5CCCCC5)n4c3)c3ccccc32)n(-c2cccc(SCCO)c2)n1
6 | < 10 | CN(C)CCOc1cccc(-n2nc(C(C)(C)C)cc2NC(=O)N[C@H]2CC[C@@H](Oc3ccc4nnc(N5CCCCC5)n4c3)c3ccccc32)c1
7 | < 10 | Cc1ccc(-n2nc(C(C)(C)C)cc2NC(=O)N[C@H]2CC[C@@H](Oc3ccc4nnc([C@H]5CCCN5C)n4c3)c3ccccc32)cc1
8 | < 10 | C[C@H]1CCCCN1c1nnc2ccc(O[C@@H]3CC[C@H](NC(=O)Nc4cc(C(C)(C)C)nn4-c4cccc(OCCN(C)C)c4)c4ccccc43)cn12
9 | < 10 | COC1CCN(Cc2cccc(-n3nc(C(C)(C)C)cc3NC(=O)N[C@H]3CC[C@@H](Oc4ccc5nnc(N6CCCC[C@@H]6C)n5c4)c4ccccc43)c2)CC1
10 | < 10 | CC(C)(C)c1cc(NC(=O)N[C@H]2CC[C@@H](Oc3ccc4nnc(N5CCCCC5)n4c3)c3ccccc32)n(-c2cnn(CCN3CCOCC3)c2)n1
11 | < 10 | C[C@H]1CCCCN1c1nnc2ccc(O[C@@H]3CC[C@H](NC(=O)Nc4cc(C(C)(C)C)nn4-c4cccc(OCCN5CCN(C)CC5)c4)c4ccccc43)cn12
12 | < 10 | C[C@H]1COCCN1c1nnc2ccc(O[C@@H]3CC[C@H](NC(=O)Nc4cc(C(C)(C)C)nn4-c4cccc(OCCN(C)C)c4)c4ccccc43)cn12
13 | < 10 | Cc1ccc(-n2nc(C(C)(C)C)cc2NC(=O)N[C@H]2CC[C@@H](Oc3ccc4nnc([C@@H]5CCN(C)C5)n4c3)c3ccccc32)cc1
14 | < 10 | C[C@H]1CCCCN1c1nnc2ccc(O[C@@H]3CC[C@H](NC(=O)Nc4cc(C(C)(C)C)nn4-c4cccc(OCCN5CCCCC5)c4)c4ccccc43)cn12
15 | < 10 | CN1CCCC[C@H]1c1nnc2ccc(O[C@@H]3CC[C@H](NC(=O)Nc4cc(C(C)(C)C)nn4CCO)c4ccccc43)cn12
16 | < 10 | C[C@@H]1CCC[C@H](C)N1c1nnc2ccc(O[C@@H]3CC[C@H](NC(=O)Nc4cc(C(C)(C)C)nn4-c4cnn(CCN(C)C)c4)c4ccccc43)cn12
17 | < 10 | C[C@H]1CCCCN1c1nnc2ccc(O[C@@H]3CC[C@H](NC(=O)Nc4cc(C(C)(C)C)nn4-c4cccc(CN5CCCC5)c4)c4ccccc43)cn12
18 | < 10 | Cc1ccc(-n2nc(C(C)(C)C)cc2NC(=O)N[C@H]2CC[C@@H](Oc3ccc4nnc(N5CCN(C)CC5)n4c3)c3ccccc32)cc1
19 | < 10 | C[C@H]1CCCCN1c1nnc2ccc(O[C@@H]3CC[C@H](NC(=O)Nc4cc(C(C)(C)C)nn4-c4ccc(CN5CCCCC5)cc4)c4ccccc43)cn12
20 | < 10 | C[C@H]1COCCN1c1nnc2ccc(O[C@@H]3CC[C@H](NC(=O)Nc4cc(C(C)(C)C)nn4CCO)c4ccccc43)cn12
21 | < 10 | Cc1ccc(-n2nc(C(C)(C)C)cc2NC(=O)N[C@H]2CC[C@@H](Oc3ccc4nnc(N5[C@H](C)CCC[C@@H]5C)n4c3)c3ccccc32)cc1
22 | 10 to 100 | Cc1ccc(-n2nc(C(C)(C)C)cc2NC(=O)N[C@H]2CC[C@@H](Oc3ccc4nnc(-c5ccc(CN6CCOCC6)nc5)n4c3)c3ccccc32)cc1
23 | < 10 | CN1CCN(Cc2cccc(-n3nc(C(C)(C)C)cc3NC(=O)N[C@H]3CC[C@@H](Oc4ccc5nnc(N6CCCCC6)n5c4)c4ccccc43)c2)CC1
24 | < 10 | Cc1ccc(-n2nc(C(C)(C)C)cc2NC(=O)N[C@H]2CC[C@@H](Oc3ccc4nnc([C@@H]5CCCN5CCCO)n4c3)c3ccccc32)cc1
25 | < 10 | C[C@H]1COCCN1c1nnc2ccc(O[C@@H]3CC[C@H](NC(=O)Nc4cc(C(C)(C)C)nn4CCN4CCOCC4)c4ccccc43)cn12
26 | < 10 | CN1CCC[C@H]1c1nnc2ccc(O[C@@H]3CC[C@H](NC(=O)Nc4cc(C(C)(C)C)nn4-c4cccc(OCCO)c4)c4ccccc43)cn12

Row | IC50 [nM] | Compound
27 | < 10 | CC(C)(C)c1cc(NC(=O)N[C@H]2CC[C@@H](Oc3ccc4nnc(N5CCCCC5)n4c3)c3ccccc32)n(-c2cccc(CN3CCN(CCO)CC3)c2)n1
28 | < 10 | Cc1ccc(-n2nc(C(C)(C)C)cc2NC(=O)N[C@H]2CC[C@@H](Oc3ccc4nnc(N5CCCCCC5)n4c3)c3ccccc32)cc1
29 | < 10 | C[C@H]1CCCCN1c1nnc2ccc(O[C@@H]3CC[C@H](NC(=O)Nc4cc(C(C)(C)C)nn4CCN(C)C)c4ccccc43)cn12
30 | < 10 | C[C@H]1CCCCN1c1nnc2ccc(O[C@@H]3CC[C@H](NC(=O)Nc4cc(C(C)(C)C)nn4-c4cccc(CCN5CCCN(C)CC5)c4)c4ccccc43)cn12
31 | < 10 | Cc1ccc(-n2nc(C(C)(C)C)cc2NC(=O)N[C@H]2CC[C@@H](Oc3ccc4nnc([C@H]5COCCN5C)n4c3)c3ccccc32)cc1
32 | < 10 | CC(C)(C)c1cc(NC(=O)N[C@H]2CC[C@@H](Oc3ccc4nnc(N5CCCCC5)n4c3)c3ccccc32)n(-c2cccc(COCCO)c2)n1
33 | < 10 | Cc1ccc(-n2nc(C(C)(C)C)cc2NC(=O)N[C@H]2CC[C@@H](Oc3ccc4nnc(N(C)CCN(C)C)n4c3)c3ccccc32)cc1
34 | < 10 | CN1CCCC[C@H]1c1nnc2ccc(O[C@@H]3CC[C@H](NC(=O)Nc4cc(C(C)(C)C)nn4-c4ccc(CO)cc4)c4ccccc43)cn12
35 | < 10 | Cc1ccc(-n2nc(C(C)(C)C)cc2NC(=O)N[C@H]2CC[C@@H](Oc3ccc4nnc([C@H]5CCCN5)n4c3)c3ccccc32)cc1
36 | < 10 | Cc1ccc(-n2nc(C(C)(C)C)cc2NC(=O)N[C@H]2CC[C@@H](Oc3ccc4nnc(N5CCCOCC5)n4c3)c3ccccc32)cc1
37 | < 10 | CCOC(=O)c1cccc(-n2nc(C(C)(C)C)cc2NC(=O)N[C@H]2CC[C@@H](Oc3ccc4nnc([C@@H]5CCCN5C)n4c3)c3ccccc32)c1
38 | < 10 | CCN(C)Cc1ccc(-n2nc(C(C)(C)C)cc2NC(=O)N[C@H]2CC[C@@H](Oc3ccc4nnc(N5CCCC[C@@H]5C)n4c3)c3ccccc32)cc1
39 | < 10 | CN1CCC[C@H]1c1nnc2ccc(O[C@H]3C[C@H](NC(=O)Nc4cc(C(C)(C)C)nn4-c4ccc(CO)cc4)c4ccccc43)cn12
40 | < 10 | Cc1ccc(-n2nc(C(C)(C)C)cc2NC(=O)N[C@H]2CC[C@H](Oc3ccc4nnc(N5CCCCC5)n4c3)c3ccccc32)cc1
41 | < 10 | Cc1ccc(-n2nc(C(C)(C)C)cc2NC(=O)N[C@H]2CC[C@@H](Oc3ccc4nnc(C(C)(C)N5CCCC5)n4c3)c3ccccc32)cc1
42 | < 10 | Cc1ccc(-n2nc(C(C)(C)C)cc2NC(=O)N[C@H]2CC[C@@H](Oc3ccc4nnc(N5CCC[C@@H]5CO)n4c3)c3ccccc32)cc1
43 | < 10 | Cc1ccc(-n2nc(C(C)(C)C)cc2NC(=O)N[C@H]2CC[C@@H](Oc3ccc4nnc(CN5CCN(C)C(CO)C5)n4c3)c3ccccc32)cc1 (stereo partly specified)
44 | < 10 | COCCN(C)Cc1cccc(-n2nc(C(C)(C)C)cc2NC(=O)N[C@H]2CC[C@@H](Oc3ccc4nnc(N5CCCC[C@@H]5C)n4c3)c3ccccc32)c1
45 | < 10 | C[C@H]1CCCCN1c1nnc2ccc(O[C@@H]3CC[C@H](NC(=O)Nc4cc(C(C)(C)C)nn4CCN4CCOCC4)c4ccccc43)cn12
46 | < 10 | Cc1ccc(-n2nc(C(C)(C)C)cc2NC(=O)N[C@H]2CC[C@@H](Oc3ccc4nnc([C@@H]5CC(C)(C)CN5C)n4c3)c3ccccc32)cc1
47 | < 10 | CC(C)(C)c1cc(NC(=O)N[C@H]2CC[C@@H](Oc3ccc4nnc(N5CCC(CO)CC5)n4c3)c3ccccc32)n(-c2ccc(CO)cc2)n1
48 | < 10 | C[C@@H]1CCC[C@H](C)N1c1nnc2ccc(O[C@@H]3CC[C@H](NC(=O)Nc4cc(C(C)(C)C)nn4-c4cccc(CN5CCN(C)CC5)c4)c4ccccc43)cn12
49 | < 10 | Cc1ccc(-n2nc(C(C)(C)C)cc2NC(=O)N[C@H]2CC[C@@H](Oc3ccc4nnc(N5CCC[C@@H](CO)C5)n4c3)c3ccccc32)cc1
50 | < 10 | Cc1ccc(-n2nc(C(C)(C)C)cc2NC(=O)N[C@H]2CC[C@@H](Oc3ccc4nnc(N5CCC(C(C)(C)O)CC5)n4c3)c3ccccc32)cc1
51 | < 10 | C[C@H]1CCCCN1c1nnc2ccc(O[C@@H]3CC[C@H](NC(=O)Nc4cc(C(C)(C)C)nn4-c4cccc(OCCN5C6CCC5COC6)c4)c4ccccc43)cn12
